Data as given in paper PMC5764437, “Discovery of novel, orally bioavailable, antileishmanial compounds using phenotypic screening” (PLoS Neglected Tropical Diseases, 2017).
Converted amounts (≈) assume the structure as drawn.

Assays:
[1] = Caco-2 permeability assay; type: in vitro ADME; details: human, pH 7.4; for Papp A→B at 2 h, 10 μmol/L / Papp B→A at 2 h, 10 μmol/L: Caco-2, mean ± standard deviation of three runs; for Papp A→B at 2 h, 10 μmol/L: read-out: Caco-2 (A→B) permeability coefficient; for Papp B→A at 2 h, 10 μmol/L: read-out: Caco-2 (B→A) permeability coefficient
[2] = test system: L. mexicana intracellular amastigotes; experiment: Growth inhibition of intracellular amastigotes in J774A.1 macrophages (Renilla luciferase luminescence); type: cell-based; details: Leishmania mexicana, J774.A1; intracellular amastigotes in J774A.1 macrophages; mean ± standard deviation, n = 2; read-out: L. mexicana EC50
Experimental: L. mexicana (MNYZ/BZ/62/M379) or L. donovani (LdBob strain) parasites expressing the Renilla luciferase gene from a rRNA gene locus were used to infect J774A.1 macrophages. Growth of intracellular amastigotes was measured using a luminescence assay, as detailed previously. The growth inhibitor activities of compounds were tested against bloodstream form Lister 427 T. brucei in 96-well plates containing 1 X 10^5 parasites per well in 0.2 ml HMI-11 medium (Gibco/Thermo Fisher). Compounds (2 μl volumes in DMSO) were added to the parasites using serial 3-fold dilutions to cover a range of concentrations from about 10 μM to 1 nM. After 48 h incubation at 37°C under a humidified 5% CO2 atmosphere, 10 μl of 10% Triton X-100 and 100 X stock SYBR Green I (Sigma-Aldrich) in PBS was added and florescence measured (excitation 497 nm; emission 520 nm) after 1 h incubation in the dark using a Spectra Max Gemini XPS fluorimeter (Molecular Devices). Data were log transformed and EC50 values were determined using GraphPad Prism 6 (GraphPad Software). In the absence of growth inhibiting compounds, the parasites grew from an initial density of 5 X 10^5 cells/mL to ~3 X 10^6 cells/mL.
[…]. These were chosen as candidates for further study. From these 230 compounds, we were able to repurchase 113 from commercial vendors. These compounds were characterized for purity by ultra-performance liquid chromatography using ultraviolet spectroscopy and evaporative light scattering detection and identity by mass spectrometry. All validated compounds were profiled for activity against intracellular amastigotes, the disease-causing stage of the life cycle. Intracellular amastigote activity was determined using a strain of L. mexicana in which the Renilla luciferase gene was integrated into the rRNA locus, allowing robust expression for measuring amastigote growth within cultured macrophages. All 113 compounds were applied at 1 μM concentration for 96 h to J774A.1 macrophages infected with L. mexicana luciferase-expressing parasites. […].
Next, we generated dose-response curves for these 55 compounds against intracellular amastigotes and independently against J774A.1 macrophages to establish the relative potency of each compound against the pathogen and its host cell. […]. The nine remaining compounds, each representing a unique chemical scaffold (compounds 1–9, Fig 3), were designated top hits (Fig 1).

[3] = test system: Trypanosoma cruzi CL Brener epimastigotes; experiment: Growth inhibition of Trypanosoma cruzi epimastigotes (SYBR Green); type: cell-based; details: 72 h, 10 μM to 1 nM
Experimental: Trypanosoma cruzi CL Brener epimastigotes were obtained from Dr. Fred Buckner of the Department of Medicine at the University of Washington. T. cruzi epimastigotes were grown in liver infusion tryptose medium and seeded in a 96-well plate at 10^5 epimastigotes per well in 100 μl medium. For each well, 1 μl of compound in DMSO at 100X the desired final concentration was added. Epimastigotes were exposed to a range of compound concentrations from 10 μM to 1 nM to determine EC50. Plates were incubated at 26°C for 72 h, then 10 μl 50X SYBR Green in 1% Triton X-100 was added to each well followed by incubation with shaking at room temperature for 30 minutes. Fluorescence was read (excitation 485nm, emission 535nm) with the Victor^2 multiplate reader (PerkinElmer). All data processing and visualization were performed using GraphPad Prism 6 software.

[4] = Stability in simulated gastric fluid; details: simulated gastric fluid with pepsin, pH 1
Experimental: Compound stocks were 10 mM in DMSO. The internal standard was 5 µM warfarin in methanol. […] 1 ml SGF was added to a 1.1 ml 96-well storage plate and mixed well with 10 µl compound stock. The plate was then incubated at 37 °C and shaken at 60 rpm. […] At each time point, 100 µl was removed to a 1 ml storage plate and 300 µl internal standard was added to quench the reaction. […] The compound was detected by SIR and quantification was based on peak area of test compound and the internal standard.

[5] = Solubility in aqueous buffer; type: physicochemical; details: citrate phosphate buffered saline, pH 7.4, aqueous buffer, kinetic from dmso stock
Experimental: Solubility assays were carried out on a Biomek FX lab automation workstation (Beckman Coulter, Inc., Fullerton, CA) using μSOL Evolution software (pION Inc.). Compound stock (10 mM in DMSO, 10 μL) was added to 1-propanol (190 μL) to make a reference stock plate. Reference stock solution (5 μL) was mixed with 1-propanol (70 μL) and citrate phosphate buffered saline (pH 7, 75 μL) to make the reference plate which was then measured with UV detection. Test compound stock (10 mM, 6 μL) was added to citrate phosphate buffered saline (594 μL) in a 96-well storage plate and mixed. […] The suspension was then filtered through a 96-well filter plate (pION Inc.). Filtrate (75 μL) was mixed with 1-propanol (75 μL) to make the sample plate, and the UV spectrum (250 nm −500 nm) of the sample plate was recorded. Calculation of solubility was carried out using μSOL Evolution software based on the AUC of the UV spectrum of the sample plate and the reference plate. All compounds were tested in triplicate.

[6] = Liver microsomal stability, rat; details: liver microsomes, pH 7.4
Experimental: (§1) One part of 10 mM DMSO compound stock was mixed with 4 parts of acetonitrile to make 2 mM diluted compound stock in DMSO and acetonitrile. 29.1 µL diluted compound stock was added to 2.3 mL liver microsomal solution and vortexed to make microsomal solution with compound. […] For the 0 h time point, 450 µL pre-cooled (4 °C) internal standard (10 µM warfarin in methanol) was added to the first three columns before the reaction was initiated. 1.25 ml of microsome assay solution A (Fisher Scientific, #NC9255727) was combined with 0.25 ml of solution B (Fisher Scientific, #NC9016235) in 3.5 ml of potassium phosphate buffer (0.1 M, pH 7.4). 45 µL of this A+B solution was added to each well of the 96-well storage plate (reaction plate). Liquid in the first 3 columns was moved to another storage plate (quenched plate). The reaction plate was then sealed, incubated at 37 °C, and shaken at a speed of 60 rpm. Time points (0.5 h, 1 h, 2 h) were taken. At each time point, 450 µL pre-cooled internal standard was added to 3 rows in the reaction plate, and the liquid was then transferred to the quenched plate. […] 200 µL supernatant was transferred to a 96-well plate and analyzed by ultra-performance liquid chromatography-mass spectrometry (UPLC-MS) (Waters Inc.). The compounds and internal standard were detected by selected ion recording (SIR).

[7] = Liver microsomal stability, human; details: both, liver microsomes, pH 7.4
Experimental: as §1

| SMILES | Papp A→B at 2 h, 10 μmol/L [1] [×10⁻⁶ cm/s] | Papp B→A at 2 h, 10 μmol/L [1] [×10⁻⁶ cm/s] | EC50 [2] [nM] | T. cruzi epimastigotes EC50 [3] | half-life at 99 µM [4] [h] | solubility at 18 h [5] [µM] | half-life at 20 μM [6] [h] | half-life at 20 μM [7] [h] | efflux ratio at 2 h, 10 μmol/L ([1]; Caco-2, pH 7.4, Papp B→A / Papp A→B) | EC50 ([3]; Trypanosoma cruzi, read-out: T. cruzi epimastigotes EC50) [nM] |
| --- | --- | --- | --- | --- | --- | --- | --- | --- | --- | --- |
| COc1ccc(-c2c(C(F)(F)F)oc3c(CN4CCN(C)CC4)c(O)ccc3c2=O)cc1OC [Compound 4] | 49 ± 0.3 | 39 ± 0.7 | 80 | no inhibition | > 48 | 67 (≈ 32.1 µg/mL) | > 4 | > 4 | – | – |
| Cc1ccc(-c2nc3ccccc3s2)cc1NC(=O)c1cc([N+](=O)[O-])c(N2CCN(C)CC2)cc1Cl [Compound 5] | 16.8 ± 2.4 | 32.2 ± 2.9 | 22 | – | > 24 | 0.3 (≈ 0.157 µg/mL) | > 4 | > 4 | 1.92 | 86 ± 30 |
